In article PMC7473865, “Repertoire-scale determination of class II MHC peptide binding via yeast display improves antigen prediction” (Nature Communications, 2020):
Like-named read-outs stand apart in the source and are kept apart here. Ends that are not written are not given here.

Experiments:
Assay type in all cases: binding
[1] = target: T1, recombinant HLA-DR402 (HLA-DRA1*01:01, HLA-DRB1*04:02) (Homo sapiens, UniProt P01903+P01911, A100E/A169T/F76Y/K127E/L162R/M171V/N62H/P40V/Q125Y/Q99D/R42H/S133A/S149N/S66Y/V209L/W38E); assay: biochemical
T1 construct: poly-histidine (C); made in house; host or cells: High Five (Hi5) insect cells, baculovirus (pAcGP67a)

[2] = target: yeast-displayed HLA-DR401 (Homo sapiens, UniProt P01903+P01911, A100K/A169T/D72E/F76Y/I96L/K127E/L162R/M171V/M61L/P40V/Q125Y/R42H/S133A/S149N/S66Y/V115G/V157M/V209L/W38E); assay: Yeast-display randomized peptide library selection and deep sequencing, HLA-DR401; parameters: key: 1=binder; 0=non-binder
[3] = target: T2, recombinant HLA-DR401 (HLA-DRA1*01:01, HLA-DRB1*04:01) (Homo sapiens, UniProt P01903+P01911, A100K/A169T/F76Y/I96L/K127E/L162R/M171V/N62H/P40V/Q125Y/R42H/S133A/S149N/S66Y/V115G/V209L/W38E); assay: biochemical
T2 construct: poly-histidine (C); made in house; host or cells: High Five (Hi5) insect cells, baculovirus (pAcGP67a)

[4] = HLA-DR402, estimated from two-point fluorescence polarization competition, Fig5F, read-out: Estimated IC50
[5] = SuppFig8C, yeast-display library peptides

Compound | IC50 [1] [nM] | IC50 [1, 4] [nM] | also measured
AQKIVEWDSRKSKYG | 62 |  | 
AAVREKCDHVGWEEG | 75.5 |  | 
AAEHVWPSLVGWEEG | 25.6 |  | 
AATERRPTLMAWEEG |  | < 10 | IC50 ([1]; read-out: IC50): < 10 nM
LGFVFTLTVPSERGL |  | 409 | 
AACRKHGSSIGWEEG | 132 |  | 
AAQVDWPTLPMWEEG | 63.6 |  | 
AAANRRPSLLGWEEG |  | < 10 | IC50 ([1]; read-out: IC50): < 10 nM
CC[C@H](C)[C@H](NC(=O)[C@@H]1CCCN1C(=O)[C@H](Cc1ccc(O)cc1)NC(=O)[C@H](CCCCN)NC(=O)[C@H](CCSC)NC(=O)[C@H](C)NC(=O)[C@H](CCSC)NC(=O)[C@H](CCSC)NC(=O)[C@H](Cc1c[nH]c2ccccc12)NC(=O)[C@H](CCCCN)NC(=O)[C@H](CCSC)NC(=O)[C@H](CCCNC(=N)N)NC(=O)[C@H](CC(C)C)NC(=O)[C@H](C)NC(=O)[C@@H]1CCCN1)C(=O)O |  | 1310 | 
AAACRKRTWLGWEEG |  | < 10 | IC50 ([1]; read-out: IC50): < 10 nM
CC[C@H](C)[C@H](NC(=O)[C@H](C)NC(=O)[C@@H](NC(=O)[C@H](C)NC(=O)[C@H](CCCNC(=N)N)NC(=O)[C@H](CCCNC(=N)N)NC(=O)CNC(=O)[C@@H](NC(=O)[C@H](CCSC)NC(=O)[C@@H](NC(=O)[C@H](Cc1ccccc1)NC(=O)[C@H](CCC(=O)O)NC(=O)[C@H](CCC(=O)O)NC(=O)[C@@H](N)Cc1ccc(O)cc1)[C@@H](C)O)C(C)C)[C@@H](C)O)C(=O)N[C@@H](CC(C)C)C(=O)O |  | 4570 | 
AALWRHPGHVGWEEG | 74.9 |  | 
AAADARCSNRSDLMGGSGGG |  |  | label (1=binder, 0=non-binder) ([2]; Fig6B data set): 0; label (1=binder, 0=non-binder) [2, 5]: 0
ASKMRMATPLLMQAG |  | < 10 | IC50 [3]: 5170 nM
AAAKYRLHVKSGWSGGSGGG |  |  | label (1=binder, 0=non-binder) ([2]; Fig6B data set): 0
AAANWSSSPDMPLVGGSGGG |  |  | label (1=binder, 0=non-binder) ([2]; Fig6B data set): 0; label (1=binder, 0=non-binder) [2, 5]: 0

Compound | IC50 [1] [nM] | IC50 [1, 4] [nM] | also measured
NRMVLASTTAKAMEQ |  | < 10 | IC50 ([1]; read-out: IC50): < 10 nM
AAVTNWGCEVGWEEG | 136 |  | 
CC[C@H](C)[C@H](NC(=O)CNC(=O)[C@H](CCCNC(=N)N)NC(=O)[C@H](CCCCN)NC(=O)[C@@H](NC(=O)[C@H](CCSC)NC(=O)[C@H](CCCNC(=N)N)NC(=O)[C@@H](NC(=O)[C@H](CC(C)C)NC(=O)[C@H](CCC(=O)O)NC(=O)[C@H](CCSC)NC(=O)[C@@H](NC(=O)[C@H](CCSC)NC(=O)[C@@H](N)[C@@H](C)O)C(C)C)C(C)C)[C@@H](C)CC)C(=O)N[C@@H](CC(N)=O)C(=O)O [TMVMELVRMIKRGIN] |  | 870 | 
AAVTERPINLGWEEG | 51.3 |  | 
CC[C@H](C)[C@H](NC(=O)[C@H](CCC(=O)O)NC(=O)[C@@H](N)[C@@H](C)O)C(=O)N[C@H](C(=O)N[C@@H](CCCNC(=N)N)C(=O)N[C@@H](CCSC)C(=O)N[C@@H](CCSC)C(=O)N[C@@H](CCC(=O)O)C(=O)N[C@@H](CO)C(=O)N[C@@H](C)C(=O)N[C@@H](CCCNC(=N)N)C(=O)N1CCC[C@H]1C(=O)N[C@@H](CCC(=O)O)C(=O)N[C@@H](CC(=O)O)C(=O)N[C@H](C(=O)O)C(C)C)[C@@H](C)CC |  | 83.1 | 
AAVSDRLPLRGWEEG |  | < 10 | IC50 ([1]; read-out: IC50): < 10 nM
AAGRSHRTHEGWEEG | 10 |  | 
ASKIAFKIVSQEPAG | 27.8 |  | 
AAPRRHANHLGWEEG | 130 |  | 
AAVTEEKSHLGWEEG | 58.3 |  | 
AAARGALTTQLLAIGGSGGG |  |  | label (1=binder, 0=non-binder) [2, 5]: 0
AAAMQRRNPALLLFGGSGGG |  |  | label (1=binder, 0=non-binder) ([2]; Fig6B data set): 0; label (1=binder, 0=non-binder) [2, 5]: 0
AALTGKLGHRGWEEG |  | < 10 | IC50 ([1]; read-out: IC50): < 10 nM
AALDAHRDHMAWEEG |  | < 10 | IC50 ([1]; read-out: IC50): < 10 nM
AAALSTSWLFCSRCGGSGGG |  |  | label (1=binder, 0=non-binder) ([2]; Fig6B data set): 0; label (1=binder, 0=non-binder) [2, 5]: 0
